From patent EP0471612B1, “New steroids having an amide substituted group in the 11-beta position, their preparation, their use as medicines and pharmaceutical composition thereof” (ROUSSEL UCLAF, priority 1990, dated 1992)
pIC50: −log10 of the molar value. Where two headings read alike, the source gives them in different places.

Tests used:
[1] = test system: cellules tumorales mammaires MCF-7; assay: Anti-proliferative activity on growth of MCF-7 mammary tumour cells (DNA assay with DABA); type: cell-based; conditions: Homo sapiens, MCF7, 144 h, read-out: CI50 (concentration qui inhibe de 50 % la croissance des cellules MCF7)
Experimental: Les lignées MCF-7 sont maintenues en culture en milieu SVF(1) à 37°C en atmosphère humide contenant 5 % CO2. Les cellules à subconfluence sont récoltées par trypsination (trypsine 0,05 %, EDTA 0,02 %) puis rincées par centrifugation douce. Un échantillon des cellules en suspension est compté sur cellule de Malassez.
Les cellules resuspendues dans le milieu SVF sont ensemencées à raison de 30.000 cellules par puits dans des plaques multipuits (24 puits de 2,5 cm^2). Vingt quatre heures après l'ensemencement (JO), le produit à tester est ajouté au milieu en solution éthanolique (concentration finale en éthanol : 0,1 %), à la concentration de 10^-12 à 10^-6M, les puits contrôles recevant la même concentration en éthanol. Les milieux sont renouvelés toutes les 48 heures. En fin d'expérience (J6), le milieu est aspiré et les cellules sont immédiatement fixées par 150 microlitres de méthanol afin de doser l'ADN.
L'activité anti-proliférative des produits est évaluée par leur capacité à inhiber l'augmentation d'ADN.
L'ADN est dosé par une méthode fluorimétrique utilisant le DABA (Acide 3,5 diaminobenzoïque) (2) : 150 microlitres de DABA sont ajoutés dans chaque puits; les plaques sont alors incubées 45 mn à 56°C, puis 2 ml d'HCl 1N sont ajoutés. La fluorescence est mesurée à l'aide d'un fluorimètre (longueur d'onde excitatrice : 408 nm, longueur d'onde d'émission : 510 nm).
La quantité d'ADN par puits est évaluée par rapport à une gamme étalon obtenue en traitant dans les mêmes conditions un standard d'ADN de thymus de veau.
La concentration en nm qui inhibe de 50 % la croissance des cellules MCF7 (CI50) a été déterminée de la manière indiquée ci-dessus : […]

[2] = biological target: T1, récepteur estrogène de l'utérus de souris (Mus musculus, UniProt P19785); assay: Relative binding affinity (ARL) for the estrogen receptor, mouse uterus cytosol, displacement of tritiated estradiol; conditions: ARL = 100 (CH)/(CX), estradiol = 100, head prints 0°C; for Récepteurs Oestrogène Temps d'incubation à 0°C 5H (affinité relative de liaison, ARL): incubation 5H (second time); for Récepteurs Oestrogène Temps d'incubation à 0°C 2H (affinité relative de liaison, ARL): incubation 2H
T1 construct: les utérus sont prélevés puis homogénéisés a 0°C; from tissue; host or cells: uterus of immature female mice (18-21 days), cytosol (105 000 g supernatant)
T1 sequence (P19785 1-599): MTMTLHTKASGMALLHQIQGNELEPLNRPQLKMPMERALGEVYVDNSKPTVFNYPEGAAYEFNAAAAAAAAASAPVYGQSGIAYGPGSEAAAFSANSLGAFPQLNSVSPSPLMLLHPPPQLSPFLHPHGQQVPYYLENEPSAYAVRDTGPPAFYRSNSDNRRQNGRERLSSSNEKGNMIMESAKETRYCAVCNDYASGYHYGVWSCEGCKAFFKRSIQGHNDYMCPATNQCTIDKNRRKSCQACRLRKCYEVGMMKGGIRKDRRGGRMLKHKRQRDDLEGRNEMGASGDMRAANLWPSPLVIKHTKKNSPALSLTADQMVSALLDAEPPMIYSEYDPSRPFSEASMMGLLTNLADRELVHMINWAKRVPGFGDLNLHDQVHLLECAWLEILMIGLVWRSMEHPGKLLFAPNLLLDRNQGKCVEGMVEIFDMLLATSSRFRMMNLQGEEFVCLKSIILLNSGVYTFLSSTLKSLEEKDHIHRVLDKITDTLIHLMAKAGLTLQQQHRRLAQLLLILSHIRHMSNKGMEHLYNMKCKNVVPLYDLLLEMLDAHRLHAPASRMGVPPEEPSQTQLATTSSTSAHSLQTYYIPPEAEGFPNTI
Experimental: Des souris femelles impubères âgées de 18 a 21 jours sont sacrifiées, les utérus sont prélevés puis homogénéisés a 0°C à l'aide d'un Potter teflon-verre dans une solution tamponnée TS (Tris 10 mM, saccharose 0,25 M, HCl pH 7,4 (1 g de tissu pour 25 ml de TS). L'homogénat est ensuite ultracentrifugé (105 000 g x 90 mn) à 0°C. Des aliquotes du surnageant ainsi obtenu, sont incubées a 0°C ou a 25°C pendant un temps (t) avec une concentration constante (T) d'estradiol tritié en présence de concentrations croissantes (0 - 1000.10^-9 M) soit d'estradiol froid, soit du produit froid a tester. La concentration d'estradiol tritié lié (B) est ensuite mesurée dans chaque incubat par la technique d'adsorption au charbon-dextran.
Le calcul de l'affinité relative de liaison (ARL) est identique pour tous les récepteurs.
On trace les 2 courbes suivantes : le pourcentage de l'hormone tritiée liée (B)/(T) [formula] en fonction du logarithme de la concentration de l'hormone de référence froide et (B)/(T) [formula] en fonction du logarithme de la concentration du produit froid testé.
On détermine la droite d'équation I50 = ((B)/(T)max +(B)/(T)min)/2. [formula] (B)/(T) [formula] max = Pourcentage de l'hormone tritiée liée pour une incubation de cette hormone tritiée à la concentration (T). (B)/(T) [formula] min = Pourcentage de l'hormone tritiée liée pour une incubation de cette hormone tritiée à la concentration (T) en présence d'un grand excès d'hormone froide (2500.10^-9M).
Les intersections de la droit I50 et des courbes permettent d'évaluer les concentrations de l'hormone de référence froide (CH) et du produit froid testé (CX) qui inhibent de 50 % la liaison de l'hormone tritiée sur le récepteur.
L'affinité relative de liaison (ARL) du produit testé est déterminée par l'équation ARL = 100((CH))/((CX)). [formula]

[3] = MCF-7, product 10^-12 to 10^-6M, 6 days (J6), DNA measured

| pIC50 [1, 3] | Récepteurs Oestrogène Temps d'incubation à 0°C 5H (affinité relative de liaison, ARL) [2] | Récepteurs Oestrogène Temps d'incubation à 0°C 2H (affinité relative de liaison, ARL) [2] | Récepteurs Oestrogène Temps d'incubation à 0°C 5H (affinité relative de liaison, ARL) ([2]; listed as exemple 14) | SMILES | pIC50 [1] |
| --- | --- | --- | --- | --- | --- |
| 10.82 | 47 | 2,8 | affinité marquée | C#C[C@]1(O)CC[C@H]2[C@@H]3CCc4cc(O)ccc4[C@H]3[C@@H](CCCCCCCCOCC(=O)N(C)C(C)C)C[C@@]21C [Exemple 14, 2-((8-(3,17béta-dihydroxy19-nor-17alpha-pregna-1,3,5(10)-trien-20-yn-11béta-yl)octyl)oxy)-N-méthyl-N-(1-méthyléthyl)-acétamide] | – |
| 11.15 | 29 | 3,3 | – | CCCCN(C)C(=O)COCCCCCCOc1ccc([C@H]2C[C@]3(C)[C@@H](O)CC[C@H]3[C@@H]3CCc4cc(O)ccc4[C@H]32)cc1 [Exemple 6] | – |
| 10.52 | 20 | – | – | CCCCN(C)C(=S)COCCCCCOc1ccc([C@H]2C[C@]3(C)[C@@H](O)CC[C@H]3[C@@H]3CCc4cc(O)ccc4[C@H]32)cc1 [Exemple 1] | – |
| – | 16 | – | – | CCCCN(C)C(=S)CSCCCCCOc1ccc([C@H]2C[C@]3(C)[C@@H](O)CC[C@H]3[C@@H]3CCc4cc(O)ccc4[C@H]32)cc1 [Exemple 18] | – |

| SMILES | pIC50 [1, 3] | Récepteurs Oestrogène Temps d'incubation à 0°C 5H (affinité relative de liaison, ARL) [2] | Récepteurs Oestrogène Temps d'incubation à 0°C 2H (affinité relative de liaison, ARL) [2] | Récepteurs Oestrogène Temps d'incubation à 0°C 5H (affinité relative de liaison, ARL) ([2]; listed as exemple 14) | pIC50 [1] |
| --- | --- | --- | --- | --- | --- |
| CCCCN(C)C(=O)CSCCCCCc1ccc([C@H]2C[C@]3(C)[C@@H](O)CC[C@H]3[C@@H]3CCc4cc(O)ccc4[C@H]32)cc1 [Exemple 9, N-butyl-2-((5-(4-(3,17béta-dihydroxy-estra-1,3,5(10)-trien-11béta-yl)phényl)pentyl)thio)-N-méthyl-acétamide] | 11.05 | 11,7 | – | – | – |
| CN(CC(F)(F)C(F)(F)C(F)(F)F)C(=O)CCCCCCCOc1ccc([C@H]2C[C@]3(C)[C@@H](O)CC[C@H]3[C@@H]3CCc4cc(O)ccc4[C@H]32)cc1 [Exemple 5, 8-(4-(3,17béta-dihydroxy-estra-1,3,5(10)-trien-11béta-yl)phénoxy)-N-(2,2,3,3,4,4,4-heptafluorobutyl)-N-méthyl-octanamide] | – | 23 | 0 | – | 10.70 |
| CCCCN(C)C(=S)CCCCCCCOc1ccc([C@H]2C[C@]3(C)[C@@H](O)CC[C@H]3[C@@H]3CCc4cc(O)ccc4[C@H]32)cc1 [Exemple 2, N-butyl-8-(4-(3,17béta-dihydroxy-estra-1,3,5(10)-trien-11béta-yl)phénoxy)-N-méthyl-octanethioamide] | 10.46 | 16 | – | – | – |
